According to patent publication US10228381B2, “Additive channels” (Emulate Inc., priority 2016, dated 2019):
“Also recorded” adds a separate entry of the source. Positions of bridges follow the written chain, without caps; N, C: chain ends. Non-standard residues stand in square brackets, D forms with d. Residues, ends and D or L forms follow the SMILES beside them. hArg = N=C(N)NCCCC[C@H](N)C(=O)O; Mpa = O=C(O)CCS

B1: sCD40L: soluble CD40 ligand; recombinant human sCD40 Ligand (protein, UniProt P29965 113-261, looked up)
CD40 ligand, soluble form: MQKGDQNPQIAAHVISEASSKTTSVLQWAEKGYYTMSNNLVTLENGKQLTVKRQGLYYIYAQVTFCSNREASSQAPFIASLCLKSPGRFERILLRAANTHSSAKPCGQQSIHLGGVFELQPGASVFVNVTDPSQVSHGTGFTSFGLLKL
modifications: CD40 ligand, soluble form
B2: hu5C8: humanized monoclonal IgG1 antibody against CD40L, alternatively named anti-sCD40L or anti-CD154 (antibody, chains of the INN, looked up, V domains shown)
VH: QVQLVQSGAEVVKPGASVKLSCKASGYIFTSYYMYWVKQAPGQGLEWIGEINPSNGDTNFNEKFKSKATLTVDKSASTAYMELSSLRSEDTAVYYCTRSDGRNDMDSWGQGTLVTVSS
VL: DIVLTQSPATLSVSPGERATISCRASQRVSSSTYSYMHWYQQKPGQPPKLLIKYASNLESGVPARFSGSGSGTDFTLTISSVEPEDFATYYCQHSWEIPPTFGGGTKLEIK

Tests used:
[1] = system: fibrin deposition on HUVEC endothelium; assay: Vessel-On-Chip blood perfusion, fibrin deposition by fluorescence imaging; type: cell-based, human; conditions: for fibrin signal intensity (fibrin deposition on the endothelium): endothelial pre-treatment TNF-α 50 ng/ml 6 hours, or sCollagen 10 μg/ml in blood; for fibrin deposition on the endothelium compared to untreated blood: hu5C8 240 μg/mL, sCD40L 10 ng/ml, 4 donors, 60 μl/minute
Procedure: (§1) Adding Blood to a Vessel-On-Chip And Flow Conditions: A medical grade plastic reservoir was mounted on the chip, then 800 μl of the blood sample was pipetted into the reservoir. The chip was perfused with the blood by withdrawing it at a rate of 60 μl/minute using a syringe pump. The citrated blood was re-calcified 2 minutes after the beginning of each experiment by adding 100 μl/ml of a solution containing 100 mM calcium chloride and 75 mM magnesium chloride to the blood to permit calcium- and magnesium -dependent platelet function and coagulation.
Visualizing Fibrin Deposition: When analyzing the formation of fibrin, 10 μg/ml of fluorescently labeled fibrinogen (Alexa 488, Invitrogen) was also added to the blood. While fluorescent fibrinogen was barely detected as a diffused fluorescence, fibrin deposition on inflamed cells and sparse clots was easily distinguished since fibrin formed filamentous structures produce a signal intensity that is clearly observed above a background threshold.
(§2) Fluorescence Image Analysis: Chips perfused with blood samples were immediately imaged via fluorescence microscopy (Olympus IX83, 10× objective UPLFLN10X2 , Orca-Flash4.0 CMOS Camera). Each chamber was inspected along its entire length and 5 images (about 0.25 cm) were captured from the central area of the chamber. Image processing and quantification was performed with an automatic macro compiled in ImageJ and numerical values corresponding to platelet coverage or fibrin florescence were collected and statistically analyzed in Graphpad Prism V7.

[2] = system: platelets in human whole blood on HUVEC endothelium; assay: Vessel-On-Chip blood perfusion, platelet coverage by fluorescence imaging; type: cell-based; conditions: for areas of platelet coverage (platelet aggregation on the endothelium): endothelial pre-treatment TNF-α 50 ng/ml 6 hours, or sCollagen 10 μg/ml in blood; for platelet aggregate formation compared to untreated blood: hu5C8 240 μg/mL, sCD40L 10 ng/ml, 4 donors, 60 μl/minute
Procedure: Platelets: Platelets were labeled with human CD41-PE antibody (10 μL/ml, Invitrogen) directly added to the blood and incubated at room temperature for 5 minutes.
as §1, §2
Platelet Coverage: A percentage of signal coverage (or Platelet coverage) was computed from the binary image as the ratio of bright pixels to the total number of pixels in the image. Image processing and quantification was performed with an automatic macro compiled in ImageJ in order to ensure unbiased signal measurements. Numerical values corresponding to platelet coverage or fibrin fluorescence (signal intensity) were collected and statistically analyzed in Graphpad Prism V7.

[3] = system: human whole blood on HUVEC endothelium; assay: Vessel-On-Chip thrombosis, all endpoints together (platelet coverage, fibrin deposition, TAT); type: cell-based; conditions: adding Eptifibatide; n=4 donors
[4] = system: blood clots on endothelium; assay: Imaging of blood clots formed on-chip (SEM, micrographs, 3D movie); type: cell-based, human; conditions: after blood perfusion
Procedure: Scanning Electron Microscopy Sample Pre-treatment and Imaging: Immediately after fluorescence imaging, the chips were fixed in 2.5% glutaraldehyde in 100 mM sodium cacodylate buffer for 2 hours at room temperature. Then, the samples were washed and post fixed in 1% osmium tetroxide for 1 hour at room temperature. After the postfixation, the samples were dehydrated in series dilutions of ethanol and finally completely dried in a Critical point dryer (Tousimus Autosamsri-815). After mounting, the samples were gold sputtered using a Sputter coating system (Hummer 6.2) and imaged by SEM (Jeol 5600LV).

[5] = system: thrombin anti-thrombin complex (TAT); assay: Thrombin-Anti Thrombin (TAT) ELISA in chip effluent; type: cell-based, human; conditions: FIG. 22B; plasma from blood flowing out of the chip
Procedure: Thrombin-Anti Thrombin (TAT) Measurement via ELISA: Thrombin Anti-Thrombin (TAT) levels were analyzed in plasma from blood flowing out of the chip device by removing a sample from the outflow port. Thus TAT levels were evaluated in sample effluents collected from the outflow port of the chip using the Human TAT ELISA Kit (Siemens Healthineers) according to the user manual.

[6] = Eptifibatide 2 ug/ml, endothelium inflamed with TNF-α, n=4
[7] = Eptifibatide 2 ug/ml, following treatment with sCollagen, n=4

Molecule	fibrin signal intensity (fibrin deposition on the endothelium) [1]	structure of blood clots formed on-chip [4]	areas of platelet coverage (platelet aggregation on the endothelium) [2]	levels of TAT in outflow samples [5]	fibrin deposition on the endothelium compared to untreated blood [1]	platelet aggregate formation compared to untreated blood [2]	also measured
N=C(N)NCCCC[C@@H]1NC(=O)CCSSC[C@@H](C(N)=O)NC(=O)[C@@H]2CCCN2C(=O)[C@H](Cc2c[nH]c3ccccc23)NC(=O)[C@H](CC(=O)O)NC(=O)CNC1=O [Eptifibatide] ([Mpa][hArg]GDWPC-NH2; disulfide 1-7)	–	–	–	–	–	–	fibrin clot formation [1, 6]: significantly inhibited; inhibitory effect on fibrin clot formation [1, 7]: comparatively modest; fibrin signal (image analysis of multiple experiments) ([1]; Eptifibatide 2 ug/ml, samples treated with TNF-α): significant amount of fibrin signal was still detectable; platelet aggregation [2, 6]: significantly inhibited; inhibitory effect on platelet aggregation [2, 7]: comparatively modest; platelet adhesion (image analysis of multiple experiments) ([2]; Eptifibatide 2 ug/ml, n=4): completely inhibited; pro-thrombotic effects (platelet coverage, fibrin deposition) of TNF-α and sCollagen / thrombotic events [3]: suppressed; also recorded: inhibited
TNF-α	increased	compact clots composed of red blood cells and platelets, surrounded by fibrin; also recorded: high number of larger aggregates containing a platelet rich core decorated with fibrin	increased	significantly increased; also recorded: elevated levels	–	–	–
sCollagen: soluble collagen (Soluble Calf Skin, Type I), a standard platelet activator	increased	meshwork of complex fibrin-rich clots that incorporated red blood cells and platelets; also recorded: high number of larger aggregates containing a platelet rich core decorated with fibrin	increased	minimally increased; also recorded: elevated levels	–	–	–
B1	–	–	–	–	no significant treatment-related effects	no significant treatment-related effects	platelet coverage, fold-increase over untreated control ([2]; in some donors, sCD40L alone): about 2 fold; mean increase in platelet coverage compared to controls ([2]; sCD40L alone, up to 15 donors): not statistically significant
B2	–	–	–	–	no significant treatment-related effects	no significant treatment-related effects	–
